Data published in ChEMBL document CHEMBL3414520, “Synthesis, analgesic, anti-inflammatory and anti-ulcerogenic activities of certain novel Schiff's bases as fenamate isosteres” (Bioorg Med Chem Lett, 2015).

How the values were obtained:
[1] = species: Rattus norvegicus; test: animal or person; details: Wistar, po, read-out: INH
[2] = physchem; details: n-octanol/water
Description: n-Octanol-water partition coefficient, log P of the compound

[3] = species: Rattus norvegicus; test: animal or person; details: Wistar, po, read-out: INH; remark: listed apart in the source
[4] = species: Rattus norvegicus; details: in vivo, po, 10 mg/kg, 17 h
[5] = species: Mus musculus; test: animal or person; details: Swiss, po, 3 h, read-out: INH

SMILES | inhibition in vivo at 10 mg/kg [1] [%] | logP [2] | inhibition in vivo at 10 mg/kg [3] [%] | UI [4] | inhibition in vivo at 10 mg/kg [5] [%]
COc1ccc(/C=N/NC(=O)c2ccccc2NC(=O)c2ccc(C)cc2)cc1 | 22.6 | 4.66 | 19.3 | – | –
COc1cc(OC)c(OC)cc1/C=N/NC(=O)c1ccccc1NC(=O)c1ccc(C)cc1 | 62.2 | 4.23 | 62.4 | 1.75 | 46.2
Cc1ccc(C(=O)Nc2ccccc2C(=O)N/N=C/c2ccc(O)c(O)c2)cc1 | 55.1 | 4.02 | 55.3 | 1.417 | 77.8
Cc1ccc(C(=O)Nc2ccccc2C(=O)N/N=C/c2ccc(O)cc2)cc1 | 23.3 | 4.14 | 19.5 | – | –
COc1cc(/C=N/NC(=O)c2ccccc2NC(=O)c2ccc(C)cc2)ccc1O | 23.3 | 4.1 | 19.5 | – | –
COc1cc(OC)c(/C=N/NC(=O)c2ccccc2NC(=O)c2ccc(C)cc2)c(OC)c1 | 14.5 | 4.87 | 13.1 | – | –
Cc1ccc(C(=O)Nc2ccccc2C(=O)N/N=C/c2ccc(Cl)cc2Cl)cc1 | 1.06 | 6.12 | 0.35 | – | –
COc1cc(/C=N/NC(=O)c2ccccc2NC(=O)c2ccc(C)cc2)cc(OC)c1OC | 64.3 | 4.63 | 62.8 | 1.583 | 34.2
Cc1ccc(C(=O)Nc2ccccc2C(=O)N/N=C/c2ccccc2)cc1 | 15.9 | 4.61 | 15.2 | – | –
Cc1ccc(C(=O)Nc2ccccc2C(=O)N/N=C/c2ccc(N(C)C)cc2)cc1 | 22.3 | 4.41 | 22.3 | – | –
